The source of these data is patent US11590116B2 (THERAVANCE BIOPHARMA R&D IP, LLC, priority 2019, dated 2023).

Molecules are shown by their SMILES. Bounds are passed on as bounds.

For assay [1], the target named is T1, recombinant human ALK5 (TGF-βR1) protein (Homo sapiens, UniProt P36897).
T1 construct: purchased Life Technologies PR9075A
T1 sequence (P36897 34-503): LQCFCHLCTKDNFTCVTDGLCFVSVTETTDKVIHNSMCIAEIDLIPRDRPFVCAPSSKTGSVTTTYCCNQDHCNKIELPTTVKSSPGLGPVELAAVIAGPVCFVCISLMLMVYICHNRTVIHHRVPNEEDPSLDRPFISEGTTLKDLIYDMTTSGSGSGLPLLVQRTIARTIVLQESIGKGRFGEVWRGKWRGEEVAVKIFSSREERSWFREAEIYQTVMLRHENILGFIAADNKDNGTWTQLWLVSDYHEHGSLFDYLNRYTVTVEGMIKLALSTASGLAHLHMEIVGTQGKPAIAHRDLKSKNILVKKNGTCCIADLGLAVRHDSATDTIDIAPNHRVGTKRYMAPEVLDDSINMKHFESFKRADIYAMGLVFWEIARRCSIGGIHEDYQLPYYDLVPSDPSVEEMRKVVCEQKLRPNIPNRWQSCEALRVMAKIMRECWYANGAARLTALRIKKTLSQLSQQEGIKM
As to the kind of experiment: Biochemical ALK5 (TGF-βR1) assay to measure pKi (LANCE Ultra ULight kinase assay). Particulars: apparent pKi from pIC50 by Cheng-Prusoff, read-out: ALK5 pKi (converted). The essentials: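 Compounds (10 μM to 25 pM) were preincubated 60 min at room temperature with enzyme, then reactions were started with ATP (125 μM stock, 5× final) and run 60 min at 37 °C. EDTA-containing Eu-anti-phospho-Topo IIα (Thr1342) antibody stopped the reaction; TR-FRET read at 665 nm. pIC50 from 4-parameter fit, converted to pKi via Cheng-Prusoff.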
In general terms: Time-resolved FRET reads energy transfer from a long-lived donor to a nearby acceptor.

The subject of assay [2] is TGF-β-stimulated SMAD3 phosphorylation in BEAS-2B cells. Description: Cellular ALK5 potency assay, inhibition of TGF-β stimulated pSMAD3 formation in BEAS-2B cells. The class given is cell-based. Particulars: Homo sapiens; inhibition of TGF-β stimulated pSMAD3 formation, BEAS-2B cells; read-out: BEAS2B pIC50 (converted). Summed up: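 Cells seeded overnight; rinse with supplemented HBSS; compound 1 h at 37 °C; TGF-β 10 ng/mL final, 30 min; lyse; AlphaLISA acceptor and detector beads 2 h apart, read next day. Potency expressed as pIC50.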

Regarding `Cc1cccc(-c2[nH]cnc2-c2ccc3ncc(Br)cc3c2)n1` [Compound 1190, 3-bromo-6-[5-(6-methyl-2-pyridyl)-1H-imidazol-4-yl]quinoline], in assay [1], the Ki was 0.0398 to 0.316 nM. For the same compound, the IC50 in assay [2] was under 20 nM.

Take `Cc1cccc(-c2[nH]cnc2-c2ccc3ncc(C(=O)O[C@@H]4CCNC4)cc3c2)n1` [Compound 1149, [(3R)-pyrrolidin-3-yl] 6-[5-(6-methyl-2-pyridyl)-1H-imidazol-4-yl]quinoline-3-carboxylate]: the Ki in assay [1] was 0.398 to 3.16 nM. The IC50 in assay [2] is 200 to 1260 nM.

With `Cc1cccc(-c2[nH]cnc2-c2ccc3ncc(-c4cc(C(=O)OCCN5CCNCC5)ccn4)cc3c2)n1` [Compound 1123, 2-piperazin-1-ylethyl 2-[6-[5-(6-methyl-2-pyridyl)-1H-imidazol-4-yl]-3-quinolyl]pyridine-4-carboxylate], the Ki in assay [1] is 0.0398 to 0.316 nM. The IC50 in assay [2] was 25.1 to 158 nM.

With `Cc1cccc(-c2[nH]cnc2-c2ccc3ncc(-c4ccc(C(=O)O[C@H]5CCNC5)cn4)cc3c2)n1` [Compound 1119, [(3S)-pyrrolidin-3-yl] 6-[6-[5-(6-methyl-2-pyridyl)-1H-imidazol-4-yl]-3-quinolyl]pyridine-3-carboxylate], the Ki in assay [1] was 0.0398 to 0.316 nM. Further, the IC50 in assay [2] is 25.1 to 158 nM.

Turning to `Cc1cccc(-c2[nH]cnc2-c2ccc3ncc(C4=CCC(N(C)C)CC4)cc3n2)n1` (stereo not shown) [Compound 452, N,N-dimethyl-4-[6-[5-(6-methyl-2-pyridyl)-1H-imidazol-4-yl]-1,5-naphthyridin-3-yl]cyclohex-3-en-1-amine], the Ki in assay [1] is under 0.0316 nM. The IC50 in assay [2] was 25.1 to 158 nM.

Take `Cc1cccc(-c2n[nH]cc2-c2ccc3ncc(NC4CCNCC4)cc3n2)n1` [Compound 113, 6-[3-(6-methyl-2-pyridyl)-1H-pyrazol-4-yl]-N-(4-piperidyl)-1,5-naphthyridin-3-amine]: the Ki in assay [1] was 0.0398 to 0.316 nM. In addition, in assay [2], the IC50 is 200 to 1260 nM.

Consider `Cc1cccc(-c2[nH]cnc2-c2ccc3ncc(-c4ccc(C(=O)OC[C@@H]5CCCCN5)cn4)cc3c2)n1` [Compound 1165, [(2S)-2-piperidyl]methyl 6-[6-[5-(6-methyl-2-pyridyl)-1H-imidazol-4-yl]-3-quinolyl]pyridine-3-carboxylate], for which the Ki in assay [1] is 0.0398 to 0.316 nM. Moreover, the IC50 in assay [2] was 25.1 to 158 nM.

With `Cc1cccc(-c2n[nH]cc2-c2ccc3ncc(-c4cn[nH]c4)c(C4CCCN4)c3c2)n1` (stereo not shown) [Compound 356], in assay [1], the Ki is 0.0398 to 0.316 nM. In addition, in assay [2], the IC50 was 200 to 1260 nM.

For the compound `Cc1nc(-c2n[nH]cc2-c2ccc3ncc(N4CCC(N5CCN(C)CC5)CC4)cc3n2)ccc1F` [Compound 539, 2-[3-(5-fluoro-6-methyl-2-pyridyl)-1H-pyrazol-4-yl]-7-[4-(4-methylpiperazin-1-yl)-1-piperidyl]-1,5-naphthyridine], the Ki in assay [1] is under 0.0316 nM. The IC50 in assay [2] is 25.1 to 158 nM.

Take `COCC1CN(c2cnc3ccc(-c4c[nH]nc4-c4cccc(C)n4)nc3c2)CCN1C` (racemic) [Compound 354, 2-[3-(6-methyl-2-pyridyl)-1H-pyrazol-4-yl]-7-[rac-(3R)-3-(methoxymethyl)-4-methyl-piperazin-1-yl]-1,5-naphthyridine]: in assay [1], the Ki was under 0.0316 nM. The IC50 in assay [2] was 25.1 to 158 nM.

Turning to `Cc1cccc(-c2n[nH]cc2-c2ccc3ncc(NCC4CNC4)cc3n2)n1` [Compound 431, N-(azetidin-3-ylmethyl)-6-[3-(6-methyl-2-pyridyl)-1H-pyrazol-4-yl]-1,5-naphthyridin-3-amine], the Ki in assay [1] was 0.0398 to 0.316 nM. In addition, the IC50 in assay [2] is 1580 to 10000 nM.

Turning to `CCc1cccc(-c2n[nH]cc2-c2ccc3ncc(-c4ccn(CCNC)n4)cc3n2)n1` [Compound 92, 2-(3-(6-(3-(6-ethylpyridin-2-yl)-1H-pyrazol-4-yl)-1,5-naphthyridin-3-yl)-1H-pyrazol-1-yl)-N-methylethan-1-amine], in assay [1], the Ki was 0.0398 to 0.316 nM. In assay [2], the IC50 was 25.1 to 158 nM.

For `Cc1cccc(-c2c(-c3ccc4ncc(N5CCC(N6CCN(C)CC6)CC5)cc4c3)nnn2Cc2ccccc2)n1` [Compound 578, 6-[1-benzyl-5-(6-methyl-2-pyridyl)triazol-4-yl]-3-[4-(4-methylpiperazin-1-yl)-1-piperidyl]quinoline], the Ki in assay [1] is 3.98 to 31.6 nM. The IC50 in assay [2] was 1580 to 10000 nM.

Consider `Cc1cccc(-c2nnn(Cc3ccccc3)c2-c2ccc3ncc(N4CCCNCC4)cc3n2)n1` [Compound 257, 2-[3-benzyl-5-(6-methyl-2-pyridyl)triazol-4-yl]-7-(1,4-diazepan-1-yl)-1,5-naphthyridine], for which the Ki in assay [1] is 0.0398 to 0.316 nM. The IC50 in assay [2] was 200 to 1260 nM.

As for `Cc1cccc(-c2n[nH]cc2-c2ccc3ncc(-c4nc(C(=O)O)co4)cc3n2)n1` [Compound 546, 2-[6-[3-(6-methyl-2-pyridyl)-1H-pyrazol-4-yl]-1,5-naphthyridin-3-yl]oxazole-4-carboxylic acid], the Ki in assay [1] is 0.398 to 3.16 nM. Besides, the IC50 in assay [2] is 1580 to 10000 nM.

`Cc1cccc(-c2[nH]ncc2-c2ccc3ncc(C(=O)O[C@H]4CC[C@](C)(N)CC4)cc3c2)n1` [Compound 1196, (4-amino-4-methyl-cyclohexyl) 6-[5-(6-methyl-2-pyridyl)-1H-pyrazol-4-yl]quinoline-3-carboxylate]: in assay [1], the Ki is 0.0398 to 0.316 nM. Also, the IC50 in assay [2] is under 20 nM.

For `Cc1cccc(-c2n[nH]c(NCCN3CCOCC3)c2-c2ccc3ncc(-c4ccncc4)cc3n2)n1` [Compound 468, 3-(6-methylpyridin-2-yl)-N-(2-morpholinoethyl)-4-(7-(pyridin-4-yl)-1,5-naphthyridin-2-yl)-1H-pyrazol-5-amine], the Ki in assay [1] is 0.0398 to 0.316 nM. Moreover, in assay [2], the IC50 was 200 to 1260 nM.

With `Cc1cccc(-c2n[nH]cc2-c2ccc3nc(C4CCCN4)c(-c4cn[nH]c4)cc3c2)n1` (stereo not shown) [Compound 291, 6-[3-(6-methyl-2-pyridyl)-1H-pyrazol-4-yl]-3-(1H-pyrazol-4-yl)-2-pyrrolidin-2-yl-quinoline], the Ki in assay [1] was 3.98 to 31.6 nM. Further, the IC50 in assay [2] was 1580 to 10000 nM.

On to `Cc1cccc(-c2n[nH]cc2-c2ccc3nccc(-c4cnco4)c3n2)n1` [Compound 824, 5-[6-[3-(6-methyl-2-pyridyl)-1H-pyrazol-4-yl]-1,5-naphthyridin-4-yl]oxazole], for which the Ki in assay [1] is 0.0398 to 0.316 nM. Besides, in assay [2], the IC50 is under 20 nM.

For `CNCCn1ccc(-c2cnc3ccc(-c4c[nH]nc4-c4cccc(C(C)C)n4)nc3c2)n1` [Compound 276, 2-[3-[6-[3-(6-isopropyl-2-pyridyl)-1H-pyrazol-4-yl]-1,5-naphthyridin-3-yl]pyrazol-1-yl]-N-methyl-ethanamine], in assay [1], the Ki was under 0.0316 nM. For the same compound, the IC50 in assay [2] was 25.1 to 158 nM.

With `CN[C@H]1CC[C@@H](OC(=O)c2cnc3ccc(-c4nc[nH]c4-c4cccc(C)n4)cc3c2)CC1` [Compound 1071, [4-(methylamino)cyclohexyl] 6-[5-(6-methyl-2-pyridyl)-1H-imidazol-4-yl]quinoline-3-carboxylate], the Ki in assay [1] is 0.398 to 3.16 nM. Besides, the IC50 in assay [2] is 25.1 to 158 nM.

For the compound `Cc1cccc(-c2n[nH]cc2-c2ccc3ncc(-n4cc(-c5ccccc5)nn4)cc3n2)n1` [Compound 133, 2-[3-(6-methyl-2-pyridyl)-1H-pyrazol-4-yl]-7-(4-phenyltriazol-1-yl)-1,5-naphthyridine], the Ki in assay [1] is 0.398 to 3.16 nM. For the same compound, the IC50 in assay [2] was 25.1 to 158 nM.

Regarding `Cc1cccc(-c2[nH]cnc2-c2ccc3ncc(-c4cncc(C(=O)OCC5CNC5)c4)cc3c2)n1` [Compound 665, azetidin-3-ylmethyl 5-[6-[5-(6-methyl-2-pyridyl)-1H-imidazol-4-yl]-3-quinolyl]pyridine-3-carboxylate], the Ki in assay [1] was 0.0398 to 0.316 nM. The IC50 in assay [2] is 200 to 1260 nM.

On to `Cc1cccc(-c2nc3ccccn3c2-c2ccc3ncc(-c4nnn5c4CNCC5)cc3n2)n1` [Compound 207, 2-[2-(6-methyl-2-pyridyl)imidazo[1,2-a]pyridin-3-yl]-7-(4,5,6,7-tetrahydrotriazolo[1,5-a]pyrazin-3-yl)-1,5-naphthyridine], for which the Ki in assay [1] was 0.0398 to 0.316 nM. Also, the IC50 in assay [2] was 25.1 to 158 nM.

With `Cc1cccc(-c2[nH]cnc2-c2ccc3ncc(-c4cccc(N5CC(N)C5)c4)cc3c2)n1` [Compound 397, 1-[3-[6-[5-(6-methyl-2-pyridyl)-1H-imidazol-4-yl]-3-quinolyl]phenyl]azetidin-3-amine], the Ki in assay [1] was under 0.0316 nM. The IC50 in assay [2] was 25.1 to 158 nM.

Regarding `Cc1cccc(-c2[nH]cnc2-c2ccc3ncc(C4=CCN(C(=O)C5CCNCC5)CC4)cc3c2)n1` [Compound 778, [4-[6-[5-(6-methyl-2-pyridyl)-1H-imidazol-4-yl]-3-quinolyl]-3,6-dihydro-2H-pyridin-1-yl]-(4-piperidyl)methanone], the Ki in assay [1] is 0.0398 to 0.316 nM. Further, in assay [2], the IC50 was 25.1 to 158 nM.
